Results: patent US11000033B2, “Ketone or oxime compound, and herbicide” (NISSAN CHEMICAL CORPORATION, priority 2014, dated 2021)

Key:
Format in all cases: in vivo
transplanted rice plant = test: Test Example 1: effect on crop, application before weed generation in submerged conditions (symbol a); settings: application herbicide amount 320 g/ha
Summary of the method: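 Alluvial soil pots flooded to 4 cm water, sown with Echinochloa oryzacola, Scirpus juncoides and Monochoria vaginalis, then transplanted with 2.5 leaf stage rice seedlings; pre-emergence application. Greenhouse 25° C. to 30° C.; scored 0–5 by herbicidal ratio 3 weeks after application.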

[1] = tested on: Echinochloa crus-galli var. crus-galli; test: Test Example 3: herbicidal effect by foliage application, Wagner pot (symbol H); settings: application herbicide amount 320 g/ha
Summary of the method: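 Rating at 3 weeks post-spray, by defined criteria. Treatment: emulsion diluted with water to a predetermined amount, applied evenly to foliage of 14-day-old plants raised in alluvial soil flooded 0.1–0.5 cm deep at 25–30 °C, rice co-sown.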

[2] = tested on: directly sowed rice plant; test: Test Example 3: effect on crop by foliage application, Wagner pot (symbol b); settings: application herbicide amount 320 g/ha
Summary of the method: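 Alluvial soil in a 1/10000-are Wagner pot was flooded to a water depth of 0.1–0.5 cm. Echinochloa crus-galli var. crus-galli, Leptochloa chinensis, Cyperus difformis and rice were sown into it and grown in a greenhouse at 25–30 °C.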

Digitaria ciliaris [3] = test: Test Example 4: herbicidal effect by soil treatment (symbol F); settings: application herbicide amount 320 g/ha
Summary of the method: (§1)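 Seeds were sown in sterilized diluvial soil, covered with about 1.5 cm of soil, and the soil surface was sprayed with a water-diluted emulsion of the compound at a predetermined rate. Plants grew in a greenhouse at 25° C. to 30° C.; effects were scored visually 3 weeks after application.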

Setaria viridis = test: Test Example 4: herbicidal effect by soil treatment (symbol G); settings: application herbicide amount 320 g/ha
Summary of the method: as §1

Lolium multiflorum Lam. [4] = test: Test Example 4: herbicidal effect by soil treatment (symbol K); settings: application herbicide amount 320 g/ha
Summary of the method: as §1

Amaranthus retroflexus = test: Test Example 4: herbicidal effect by soil treatment (symbol N); settings: application herbicide amount 320 g/ha
Summary of the method: as §1

Veronica persica = test: Test Example 4: herbicidal effect by soil treatment (symbol R); settings: application herbicide amount 320 g/ha
Summary of the method: as §1

wheat = test: Test Example 4: effect on crop by soil treatment (symbol e); settings: application herbicide amount 320 g/ha
Summary of the method: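 Crop seeds, among them rice, wheat, beet and rapeseed, were sown in sterilized diluvial soil and covered with about 1.5 cm of soil. Boxes were kept in a greenhouse at 25° C. to 30° C. for plant growth.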

Digitaria ciliaris [5] = test: Test Example 5: herbicidal effect by foliage application, plastic box (symbol F); settings: 320 g/ha, 3 weeks after application
Summary of the method: (§2)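 Seeds were sown in sterilized diluvial soil, covered with about 1.5 cm of soil and grown 14 days in a greenhouse at 25° C. to 30° C. An emulsifiable formulation diluted in water to a set rate was sprayed over foliage, and injury was scored 3 weeks later.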

Alopecurus myosuroides = test: Test Example 5: herbicidal effect by foliage application, plastic box (symbol J); settings: 320 g/ha, 3 weeks after application
Summary of the method: as §2

Lolium multiflorum Lam. [6] = test: Test Example 5: herbicidal effect by foliage application, plastic box (symbol K); settings: 320 g/ha, 3 weeks after application
Summary of the method: as §2

Abutilon theophrasti = test: Test Example 5: herbicidal effect by foliage application, plastic box (symbol M); settings: 320 g/ha, 3 weeks after application
Summary of the method: as §2

Chenopodium album [7] = test: Test Example 5: herbicidal effect by foliage application, plastic box (symbol O); settings: 320 g/ha, 3 weeks after application
Summary of the method: as §2

Stellaria media = test: Test Example 5: herbicidal effect by foliage application, plastic box (symbol P); settings: 320 g/ha, 3 weeks after application
Summary of the method: as §2

beet = test: Test Example 5: effect on crop by foliage application, plastic box (symbol f); settings: 320 g/ha, 3 weeks after application
Summary of the method: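 Diluvial soil, sterilized and boxed (21 × 13 × 7 cm), received spot-sown seed covered by about 1.5 cm soil; plants were then greenhouse-grown at 25–30° C.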

Chenopodium album [8] = test: Test Example 4: herbicidal effect by soil treatment (symbol O); settings: application herbicide amount 320 g/ha
Summary of the method: as §1

Row | Compound | Effect grade on crop, a: transplanted rice plant (transplanted rice plant) | herbicidal effect on H (Echinochloa crus-galli var. crus-galli), grade 0-5 [1] | effect on crop b (directly sowed rice plant), grade 0-5 [2] | F: Digitaria ciliaris, herbicidal effect grade (Digitaria ciliaris [3]) | G: Setaria viridis, herbicidal effect grade (Setaria viridis) | K: Lolium multiflorum Lam., herbicidal effect grade (Lolium multiflorum Lam. [4]) | N: Amaranthus retroflexus, herbicidal effect grade (Amaranthus retroflexus) | R: Veronica persica, herbicidal effect grade (Veronica persica) | e: wheat, effect on crop grade (wheat) | J: Alopecurus myosuroides, herbicidal effect (criteria of Test Example 1) (Alopecurus myosuroides) | K: Lolium multiflorum Lam., herbicidal effect (criteria of Test Example 1) (Lolium multiflorum Lam. [6]) | O: Chenopodium album, herbicidal effect (criteria of Test Example 1) (Chenopodium album [7]) | P: Stellaria media, herbicidal effect (criteria of Test Example 1) (Stellaria media) | f: beet, effect on crop (criteria of Test Example 1) (beet) | Herbicidal effect grade, F: Digitaria ciliaris (Digitaria ciliaris [3]) | Herbicidal effect grade, G: Setaria viridis (Setaria viridis) | Herbicidal effect grade, K: Lolium multiflorum Lam. (Lolium multiflorum Lam. [4]) | Herbicidal effect grade, N: Amaranthus retroflexus (Amaranthus retroflexus) | Herbicidal effect grade, O: Chenopodium album (Chenopodium album [8]) | Effect on crop grade, e: wheat (wheat) | also measured
1 | CON=C(C)CC1CC(OC(=O)COc2ccccc2)=C(c2c(C)cc(-c3ccc(Cl)cc3)cc2C)C1=O (mixture of isomers) [6-061] | 5 (Herbicidal ratio of 90% or more (almost completely withered)) | 5 (Herbicidal ratio of 90% or more (almost completely withered)) | 5 (Herbicidal ratio of 90% or more (almost completely withered)) | 5 (Herbicidal ratio of 90% or more (almost completely withered)) | 5 (Herbicidal ratio of 90% or more (almost completely withered)) | 5 (Herbicidal ratio of 90% or more (almost completely withered)) | 3 (Herbicidal ratio of 40% or higher and lower than 70%) | 4 (Herbicidal ratio of 70% or higher and lower than 90%) | 2 (Herbicidal ratio of 20% or higher and lower than 40%) | 5 (Herbicidal ratio of 90% or more (almost completely withered)) | 5 (Herbicidal ratio of 90% or more (almost completely withered)) | 4 (Herbicidal ratio of 70% or higher and lower than 90%) | 3 (Herbicidal ratio of 40% or higher and lower than 70%) | 3 (Herbicidal ratio of 40% or higher and lower than 70%) |  |  |  |  |  |  | F: Digitaria ciliaris, herbicidal effect (criteria of Test Example 1) (Digitaria ciliaris [5]): 5 (Herbicidal ratio of 90% or more (almost completely withered)); M: Abutilon theophrasti, herbicidal effect (criteria of Test Example 1) (Abutilon theophrasti): 4 (Herbicidal ratio of 70% or higher and lower than 90%)
2 | CON=C(C)C(=NOC)C1CC(O)=C(c2c(C)cc(C)cc2C)C1=O (stereo not drawn) [8-003] | 0 (Herbicidal ratio of 5% or lower (almost no effect)) |  |  |  |  |  |  |  |  |  |  |  |  |  | 0 (Herbicidal ratio of 5% or lower (almost no effect)) | 0 (Herbicidal ratio of 5% or lower (almost no effect)) | 0 (Herbicidal ratio of 5% or lower (almost no effect)) | 0 (Herbicidal ratio of 5% or lower (almost no effect)) | 0 (Herbicidal ratio of 5% or lower (almost no effect)) | 0 (Herbicidal ratio of 5% or lower (almost no effect)) | H (Echinochloa crus-galli var. crus-galli) herbicidal effect grade ([1]; Table 24): 0 (Herbicidal ratio of 5% or lower (almost no effect)); b (directly sowed rice plant) effect on crop grade ([2]; Table 24): 0 (Herbicidal ratio of 5% or lower (almost no effect)); F: Digitaria ciliaris, herbicidal effect grade (Digitaria ciliaris [5]): 0 (Herbicidal ratio of 5% or lower (almost no effect)); J: Alopecurus myosuroides, herbicidal effect grade (Alopecurus myosuroides): 0 (Herbicidal ratio of 5% or lower (almost no effect)); K: Lolium multiflorum Lam., herbicidal effect grade (Lolium multiflorum Lam. [6]): 2 (Herbicidal ratio of 20% or higher and lower than 40%); M: Abutilon theophrasti, herbicidal effect grade (Abutilon theophrasti): 0 (Herbicidal ratio of 5% or lower (almost no effect)); O: Chenopodium album, herbicidal effect grade (Chenopodium album [7]): 0 (Herbicidal ratio of 5% or lower (almost no effect)); P: Stellaria media, herbicidal effect grade (Stellaria media): 0 (Herbicidal ratio of 5% or lower (almost no effect)); f: beet, effect on crop grade (beet): 0 (Herbicidal ratio of 5% or lower (almost no effect))
3 | CON=C(C)CC1CC(O)=C(c2c(F)cc(Br)cc2OC)C1=O (stereo not drawn) [6-096] | 5 (Herbicidal ratio of 90% or more (almost completely withered)) | 5 (Herbicidal ratio of 90% or more (almost completely withered)) | 5 (Herbicidal ratio of 90% or more (almost completely withered)) |  |  |  |  |  |  | 4 (Herbicidal ratio of 70% or higher and lower than 90%) | 5 (Herbicidal ratio of 90% or more (almost completely withered)) | 1 (Herbicidal ratio of 5% or higher and lower than 20%) | 1 (Herbicidal ratio of 5% or higher and lower than 20%) | 0 (Herbicidal ratio of 5% or lower (almost no effect)) | 4 (Herbicidal ratio of 70% or higher and lower than 90%) | 4 (Herbicidal ratio of 70% or higher and lower than 90%) | 5 (Herbicidal ratio of 90% or more (almost completely withered)) | 0 (Herbicidal ratio of 5% or lower (almost no effect)) | 0 (Herbicidal ratio of 5% or lower (almost no effect)) | 0 (Herbicidal ratio of 5% or lower (almost no effect)) | Herbicidal effect grade, R: Veronica persica (Veronica persica): 0 (Herbicidal ratio of 5% or lower (almost no effect))
4 | CON=C(C)CC1CC(O)=C(c2c(C)cc(C3CC3)cc2C)C1=O (stereo not drawn) [6-050] | 4 (Herbicidal ratio of 70% or higher and lower than 90%) | 5 (Herbicidal ratio of 90% or more (almost completely withered)) | 5 (Herbicidal ratio of 90% or more (almost completely withered)) | 5 (Herbicidal ratio of 90% or more (almost completely withered)) | 4 (Herbicidal ratio of 70% or higher and lower than 90%) | 5 (Herbicidal ratio of 90% or more (almost completely withered)) | 0 (Herbicidal ratio of 5% or lower (almost no effect)) | 0 (Herbicidal ratio of 5% or lower (almost no effect)) | 0 (Herbicidal ratio of 5% or lower (almost no effect)) |  |  |  |  |  |  |  |  |  |  |  | F: Digitaria ciliaris, herbicidal effect grade (Digitaria ciliaris [5]): 4 (Herbicidal ratio of 70% or higher and lower than 90%); J: Alopecurus myosuroides, herbicidal effect grade (Alopecurus myosuroides): 5 (Herbicidal ratio of 90% or more (almost completely withered)); K: Lolium multiflorum Lam., herbicidal effect grade (Lolium multiflorum Lam. [6]): 5 (Herbicidal ratio of 90% or more (almost completely withered)); M: Abutilon theophrasti, herbicidal effect grade (Abutilon theophrasti): 0 (Herbicidal ratio of 5% or lower (almost no effect)); O: Chenopodium album, herbicidal effect grade (Chenopodium album [7]): 3 (Herbicidal ratio of 40% or higher and lower than 70%); P: Stellaria media, herbicidal effect grade (Stellaria media): 3 (Herbicidal ratio of 40% or higher and lower than 70%); f: beet, effect on crop grade (beet): 2 (Herbicidal ratio of 20% or higher and lower than 40%)
